Source: PubChem BioAssay (NCI)
Values joined by “and” are separate entries in the source; they are usually repeats but may differ in a detail not shown here. Equal values may be shown once.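 Where inhibition never reached the appropriate level, the endpoint shown equals the highest concentration tested. Otherwise, values were interpolated linearly from a five-concentration, 48-hour dose response in 96-well plates. Here, GI50 denotes the concentration required for 50% inhibition of growth. TGI: total growth inhibition.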

Experiments:
Experiment in all cases: NCI tumour cell line growth inhibition, 48 h
[1] = test system: HL-60(TB) leukemia
[2] = test system: MALME-3M melanoma
[3] = test system: MDA-MB-435
[4] = test system: SF-539 CNS
[5] = test system: SK-MEL-2 melanoma
[6] = test system: SR leukemia
[7] = test system: T-47D breast
[8] = test system: UACC-257 melanoma
[9] = test system: DLD-1 colon
[10] = test system: DMS 273 small cell lung
[11] = test system: KM20L2 colon
[12] = test system: SNB-78 CNS

| Structure (SMILES) | TGI [1] | TGI [2] [µM] | TGI [3] [µM] | TGI [4] | TGI [5] [µM] | TGI [6] | TGI [7] [µM] | TGI [8] [µM] | GI50 [1] | GI50 [3] | GI50 [4] [µM] | GI50 [5] | GI50 [6] | GI50 [7] | TGI [9] | TGI [10] | TGI [11] | TGI [12] | GI50 [2] | GI50 [8] |
| --- | --- | --- | --- | --- | --- | --- | --- | --- | --- | --- | --- | --- | --- | --- | --- | --- | --- | --- | --- | --- |
| O=C1CSC(c2cc3cc(Br)ccc3nc2Cl)N1c1ccc(Cl)cc1 (stereo unspecified) | 55.7 µM | 75.8 | 49.5 | 37.8 µM | 32.2 | 44.8 µM | > 100 | 42.5 | – | – | – | – | – | – | – | – | – | – | – | – |
| O=[N+]([O-])c1ccc(N/N=C\c2cc(Br)ccc2O)nc1 | > 100 µM | – | > 100 | 4.16 µM | > 100 | > 100 µM | > 100 | – | 0.314 µM | 1.39 µM | 0.918 | 4.88 µM | 0.463 µM | 2.07 µM | – | – | – | – | – | – |
| CC(C)(CCCCC(C)(C)NC1=NCCO1)NC1=NCCO1 | > 10 µM | > 10 | > 10 | > 10 µM | > 10 | > 10 µM | > 10 | – | – | – | – | – | – | – | – | – | – | – | – | – |
| COc1ccc(/C=C2\C[C@H]3[C@@H]4CC=C5C[C@@H](O)CC[C@]5(C)[C@H]4CC[C@]3(C)\C2=N\O)cc1 | 24.8 µM | 76.6 | > 100 | > 100 µM | 39.8 | 19 µM | 4.68 | 45.7 | – | – | – | – | – | – | – | – | – | – | – | – |
| COC(=O)C1=C(O)C(C(=O)OC)[C@@]2(O)[C@@H](C(=O)OC)[C@H](C)C[C@@H]1[C@@H]2C(=O)OC (stereo partly specified) | 73.8 µM | > 100 | 32.1 | 34.1 µM | 58.9 | > 100 µM | > 100 | > 100 | – | – | – | – | – | – | – | – | – | – | – | – |
| NCCc1ccc(S(=O)(=O)O)cc1[N+](=O)[O-] | > 100 µM | > 100 | > 100 | > 100 µM | > 100 | > 100 µM | > 100 | > 100 | – | – | – | – | – | – | – | – | – | – | – | – |
| COc1cc2c(cc1OCCCOc1cc3c(cc1OC)C(=O)N1CCC[C@H]1C(=O)N3)N=C[C@@H]1CCCN1C2=O | 42.3 µM | 29.8 | 31.5 | – | 69.6 | 3.71 µM | 77.3 | 50 | – | – | – | – | – | – | – | – | – | – | – | – |
| C/C=C(/CCC1NCCc2c1[nH]c1ccccc21)[Si](C)(C)C (stereo unspecified) | – | – | – | > 100 µM and 13.1 µM | – | – | – | – | – | – | – | – | – | – | > 100 µM and 21.6 µM | > 100 µM and 13.5 µM | > 100 µM and 11.8 µM | > 100 µM and 27 µM | – | – |
| COC(=O)C(C)NP(=O)(OCc1cccc(Cn2cnc3c(N)ncnc32)c1)Oc1ccccc1 (stereo unspecified) | > 100 µM | > 100 | > 100 | > 100 µM | > 100 | > 100 µM | – | > 100 | 46.8 µM | > 100 µM | > 100 | > 100 µM | 55.4 µM | – | – | – | – | – | 68.2 µM | > 100 µM |
| O=c1c(-c2ccccc2)c(SCCCN2CCCCC2)n(-c2ccccc2)c(=S)n1-c1ccccc1 | 38.6 µM | 37.7 | 34.5 | 30.4 µM | 30.3 | 37.3 µM | – | 31.9 | – | – | – | – | – | – | – | – | – | – | – | – |
| NC(Cc1cc(I)c(Oc2ccc(O)c(I)c2)c(I)c1)C(=O)O (stereo unspecified) | – | > 100 | > 100 | – | 41 | – | > 100 | > 100 | – | – | – | – | – | – | – | – | – | – | – | – |
| Fc1ccc2c(c1)SC1=Nc3sc4cc(F)ccc4[n+]3CN12 | 0.184 µM | 47.1 | > 100 | 28.3 µM | 55 | – | 55.4 | 92.1 | – | – | – | – | – | – | – | – | – | – | – | – |
| CC1C(OS(=O)(=O)c2ccc3[nH]c(=S)sc3c2)CC2C3(C)CCC2(C(C)C(=O)O)C(O)C13 (stereo unspecified) | 58 µM | 83.8 | 47.8 | 46 µM | 81.7 | 64.8 µM | 48.3 | > 100 | – | – | – | – | – | – | – | – | – | – | – | – |
| O=c1[nH]c2ccccc2c2oc3ccccc3c12 | – | > 100 | > 100 | > 100 µM | – | > 100 µM | > 100 | > 100 | – | – | – | – | – | – | – | – | – | – | – | – |
| NCCCCNOCCCN | – | > 100 | > 100 | > 100 µM | > 100 | > 100 µM | > 100 | > 100 | – | – | – | – | – | – | – | – | – | – | – | – |
| CC1=C(C(=O)NNC(=O)C[N+](C)(C)C)CC(C(=O)NNC(=O)C[N+](C)(C)C)=C(C)N1 | > 100 µM | – | > 100 | > 100 µM | > 100 | > 100 µM | > 100 | > 100 | – | – | – | – | – | – | – | – | – | – | – | – |
| C(=C\c1cc[n+](CCc2ccccc2)cc1)/c1ccccc1 | – | 28.6 | 18.4 | 50.5 µM | 55.2 | – | 71.7 | 17.5 | – | – | – | – | – | – | – | – | – | – | – | – |
| CCc1nc(N)nc(N)c1-c1ccc(N2CCOCC2)c(N=[N+]=[N-])c1 | > 79.2 µM | – | > 100 | > 100 µM | > 100 | > 80.9 µM | > 100 | > 100 | – | – | – | – | – | – | – | – | – | – | – | – |
| CC(C)(C)OC(=O)CC(NC(=O)OCc1ccccc1)NC(=O)OC(C)(C)C (stereo unspecified) | 50.7 µg/mL | – | – | – | – | 67.7 µg/mL | – | – | 20.8 µg/mL | 87.9 µg/mL | – | 48.1 µg/mL | 27.8 µg/mL | 26 µg/mL | – | – | – | – | 46 µg/mL | 35.8 µg/mL |
| COc1cc(S(=O)(=O)Nc2nc(-c3ccc(N=Cc4ccccc4O)cc3)cs2)ccc1Cl | > 100 µM | > 100 | > 100 | > 100 µM | > 100 | > 100 µM | > 100 | > 100 | – | – | – | – | – | – | – | – | – | – | – | – |
| CC(C)C(=O)Cc1ccc2ccccc2n1 | > 100 µM | > 100 | > 100 | – | > 100 | – | > 100 | > 100 | – | – | – | – | – | – | – | – | – | – | – | – |
| CCOC(=O)c1c(C)n(-c2ccc(C)cc2)c(=O)c2ccccc2c(=O)c2c(=O)ccc(=O)c1=2 | 40.8 µM | 32.5 | 30.2 | 43.7 µM | 61 | – | 72.2 | 51.2 | – | – | – | – | – | – | – | – | – | – | – | – |
| O=c1c2ccccc2nc2n1CCc1c-2[nH]c2ccccc12 | > 100 µM | 73.7 | – | – | – | > 100 µM | 55.5 | – | – | – | – | – | – | – | – | – | – | – | – | – |
| CC(=O)Nc1ccc2c(c1)C(=O)c1ccccc1-2 | > 100 µM | > 100 | – | > 100 µM | – | > 100 µM | – | > 100 | – | – | – | – | – | – | > 100 µM | > 100 µM | > 100 µM | > 100 µM | – | – |
| COc1cc(CCN)c(OC)c(OC)c1 | > 100 µM | > 100 | 61.1 | – | > 100 | > 100 µM | > 100 | > 100 | – | – | – | – | – | – | – | – | – | – | – | – |
| O=S1(=O)C(=C(c2ccccc2)c2ccccc2)S(=O)(=O)c2ccccc21 | > 100 µM | > 100 | – | 73.3 µM | > 100 | – | – | > 100 | – | – | – | – | – | – | > 100 µM | > 100 µM | > 100 µM | 99.7 µM | – | – |
